Assay: in vitro
Conditions: human, hela cells

SMILES	viability at 28.5 h, 10 µM (% viability)	also measured
OCCN1CCN(c2nccnc2-c2cccs2)CC1 [CBK088811]	106%	
CN1CCCN(c2nccnc2-c2cccc(O)c2)CC1 [CBK088820]	112%	
CN1CCCN(c2nccnc2-c2cccs2)CC1 [CBK088823]	98.5%	
CN1CCN(c2nccnc2-c2ccoc2)CC1 [CBK088834]	98.6%	
Nc1nn2c(c1Cc1c(Cl)cccc1Cl)OCCC2 [CBK088843]	92.8%	
OCCNc1nccnc1-c1ccc2c(c1)OCO2 [CBK088984]	95%	
NC(=O)c1cccc(-c2nccnc2NCCO)c1 [CBK088993]	97%	
CC(C)[C@H](CO)Nc1nccnc1-c1ccncc1 [CBK089030]	91.9%	
COc1ccc(-c2nccnc2N[C@@H](CO)C(C)C)cc1 [CBK089040]	98.5%	
CC(C)[C@H](CO)Nc1nccnc1-c1cccs1 [CBK089047]	99%	
OCC1CCCN1c1nccnc1-c1cccnc1 (centres unmarked) [CBK089049]	101%	
OCC1CCCN1c1nccnc1-c1cccc(O)c1 (centres unmarked) [CBK089052]	109%	
OCc1ccc(-c2nccnc2N2CCCC2CO)cc1 (centres unmarked) [CBK089053]	96.3%	
O=C1CCCN1CCCNc1nccnc1-c1cccnc1 [CBK089246]	110%	
Nc1cccc(-c2nccnc2NCc2cccnc2)c1 [CBK089310]	105%	
CC(C)(CNC(=O)CN1CCOCC1)NC(=O)OC(C)(C)C [CBK089350]	88.7%	
CCC1CCCCN1C(=O)c1sc(C)nc1C (centres unmarked) [CBK089359]	105%	
CCC1CCCCN1C(=O)c1cc(Br)c(Br)s1 (centres unmarked) [CBK089360]	92.5%	
O=C(Nc1ccccc1Cl)Nc1[nH]nc(O)c1Cc1c(Cl)cccc1Cl [CBK089367]	113%	
CC(C)Nc1nccnc1Sc1ccc(N)cc1 [CBK089485]	77.1%	
CC(C)Nc1nccnc1Sc1ccccc1O [CBK089492]	92.1%	
CC(C)Nc1nccnc1Sc1cccc2ccccc12 [CBK089493]	100%	
CC(C)Nc1cc(Sc2ccc(F)cc2)ncn1 [CBK089498]	94.2%	
c1ccc2c(Sc3nccnc3N3CCCC3)cccc2c1 [CBK089527]	89.2%	

SMILES	viability at 28.5 h, 10 µM (% viability)	also measured
FC(F)(F)c1ccc(Sc2cccc3ccccc23)nc1 [CBK089553]	93.7%	
Nc1ccc(Sc2nc3ccccc3nc2C(F)(F)F)cc1 [CBK089560]	100%	
Cc1ccc(C(=O)N2CN(C(=O)CNC(C)(C)C)CC2(C)C)cc1 [CBK089575C]	88.6%	
Cc1ccc(C(=O)N2CN(C(=O)CNCC(C)C)CC2(C)C)cc1 [CBK089576C]	96%	
c1ccc2c(Sc3cncc(N4CCCC4)n3)cccc2c1 [CBK089594]	88.2%	
CC(C)(C)c1ccc(-c2cnc3ncccc3c2O)cc1 [CBK089628]	84.3%	
CCNc1cc2ccccc2c(-c2ccc3c(c2)OCCCO3)n1 [CBK089641]	99.2%	
CC(=O)c1cc2cnccc2[nH]c1=O [CBK089771]	86.5%	
CC(=O)Cc1nc2ccccc2nc1O [CBK089805]	92.2%	
NC(=O)c1ccnc(Cl)c1 [CBK089827]	96%	
O=C(Nc1cccnc1)c1ccnc(Cl)c1 [CBK089829]	100%	
COc1ccc2[nH]c3c(c2c1)CCN[C@]31CCN(CCOc2ccc(F)cc2)C1 [CBK089876T]	73.6%	
COC(=O)c1sc2cc(C(F)(F)F)cnc2c1-c1cccnc1 [CBK089885]	112%	
COC(=O)c1sc2cc(C(F)(F)F)cnc2c1-c1ccccn1 [CBK089888]	93.2%	
O=C(O)c1sc2cc(C(F)(F)F)cnc2c1-c1cccs1 [CBK089890]	114%	
Oc1c2c(nn1Cc1ccccc1)CCCC2 [CBK089898]	87.4%	
O=C(Nc1ccc(OC(=O)N2CCCCC2)cc1)N1CCCCC1 [CBK090060]		viability at 28.5 h, 10 µM: 88.6%
O=C(Oc1ccccc1O)c1cccc(Cl)c1 [CBK090130]	97.1%	
Cc1cccc(C(=O)Oc2ccc(-n3ccnc3)cc2)c1 [CBK090137]	101%	
O=C(O)c1ccc(OC(=O)C2CCCC2)cc1 [CBK090156]	103%	
CN1C2CCCC1CC(OC(=O)c1cccc3nc[nH]c13)C2 (centres unmarked) [CBK090162]	99.3%	
COc1ccccc1OC(=O)c1ccccc1Cl [CBK090164]	81.4%	
CN1CCCC(OC(=O)C2CCCCC2)C1 (centres unmarked) [CBK090234]	104%	
CCOC(=O)N1CCC2(CC1)Oc1ccc(-c3cc(OC)c(OC)c(OC)c3)cc1O2 [CBK090282]		viability at 28.5 h, 10 µM (% viability, bulk resorufin, single well): 90.9%

SMILES	viability at 28.5 h, 10 µM (% viability)	also measured
COc1cc(Nc2cc(-c3ccc4c(c3)OCO4)ncn2)cc(OC)c1OC [CBK090704]	101%	
COc1cc(Nc2cc(-c3ccc(F)c(F)c3)ncn2)cc(OC)c1OC [CBK090711]	94.7%	
CC(=O)Nc1ccc(Nc2cc(-c3ccco3)ncn2)cc1 [CBK090719]	100%	
COc1cncc(-c2cc(Nc3cccc(OC)c3OC)ncn2)c1 [CBK090728]	97.8%	
COc1cccc(Nc2cc(-c3ccc(N4CCOCC4)cc3)ncn2)c1 [CBK090733]	68.7%	
COc1cccc(Nc2cc(-c3ccco3)ncn2)c1 [CBK090740]	101%	
COc1cncc(-c2cc(Nc3ccc(O)cc3)ncn2)c1 [CBK090752]	98%	
COc1ccc(Nc2cc(-c3ccc(CNC(=O)OC(C)(C)C)cc3)ncn2)c(OC)c1 [CBK090757]	90.8%	
COc1ccc(Nc2cc(-c3cc(OC)c(OC)c(OC)c3)ncn2)c(OC)c1 [CBK090759]	95.4%	
OCCc1ccc(Nc2cc(-c3cccnc3)ncn2)cc1 [CBK090768]	114%	
OCCc1ccc(Nc2cc(-c3ccsc3)ncn2)cc1 [CBK090769]	103%	
NC(=O)c1ccc(-c2cc(Nc3ccc(CCO)cc3)ncn2)cc1 [CBK090773]	102%	
COc1cncc(-c2cc(Nc3cc(OC)c(OC)cc3C)ncn2)c1 [CBK090782]	84.9%	
COc1cc(C)c(Nc2cc(-c3ccc(CC(C)C)cc3)ncn2)cc1OC [CBK090785]	91.2%	
COCCNc1cc(-c2ccccc2N(C)C)ncn1 [CBK090790]	109%	
COCCNc1cc(-c2cccc3oc4ccccc4c23)ncn1 [CBK090794]	101%	
COCCNc1cc(-c2ccco2)ncn1 [CBK090796]	92.5%	
COc1cncc(-c2cc(Nc3ccc(OC)c(OC)c3)ncn2)c1 [CBK090824]	92%	
CN(C)c1ccc(-c2cc(NCCc3ccncc3)ncn2)cc1 [CBK090849]	94.2%	
CN(C)c1ccccc1-c1cc(Nc2ccc3cn[nH]c3c2)ncn1 [CBK090850]	55.7%	
c1coc(-c2cc(Nc3ccc4[nH]ccc4c3)ncn2)c1 [CBK090862]	95.5%	
CCNc1cc(-c2ccco2)ncn1 [CBK090879]	108%	
CCCCCOc1ccc(Nc2cc(-c3ccc(N(C)C)cc3)ncn2)cc1 [CBK090889]	106%	
CC(C)(C)OC(=O)NCc1ccc(-c2cc(NC3CCCCC3)ncn2)cc1 [CBK090898]	98.5%	

SMILES	viability at 28.5 h, 10 µM (% viability)	also measured
c1coc(-c2cc(NC3CCCCC3)ncn2)c1 [CBK090901]	91.2%	
COc1cncc(-c2cc(NC3CCCCC3)ncn2)c1 [CBK090903]	96.5%	
COc1ccc(-c2cc(NC3CCCCC3)ncn2)cc1 [CBK090904]	96.8%	
COc1ccc(-c2cc(Nc3ccccc3)ncn2)cc1 [CBK090911]	93.9%	
Fc1ccc(-c2cc(Nc3ccccc3)ncn2)cc1F [CBK090913]	105%	
CN1CCN(c2ccc(-c3cc(Nc4cccc(OCc5ccccc5)c4)ncn3)cn2)CC1 [CBK090918]	113%	
c1ccc2cc(-c3cc(Nc4ccc(N5CCOCC5)cc4)ncn3)ccc2c1 [CBK090929]	94.2%	
COc1ccccc1-c1cc(Nc2ccc(N3CCOCC3)cc2)ncn1 [CBK090933]	83.7%	
FC(F)(F)Oc1ccc(-c2cc(Nc3ccc(N4CCOCC4)cc3)ncn2)cc1 [CBK090934]	88.9%	
CN(C)c1ccc(Nc2cc(-c3ccc(OCc4ccccc4)cc3)ncn2)cc1 [CBK090941]	113%	
CC(C)(C)OC(=O)NCCc1ccc(Nc2cc(-c3ccc4c(c3)OCO4)ncn2)cc1 [CBK090957]	92.5%	
CC(C)(C)OC(=O)NCCc1ccc(Nc2cc(-c3ccsc3)ncn2)cc1 [CBK090958]	115%	
CC(C)(C)OC(=O)NCCc1ccc(Nc2cc(-c3cc4ccccc4s3)ncn2)cc1 [CBK090959]	94.3%	
COc1cncc(-c2cc(N3CCC(N4CCCCC4)CC3)ncn2)c1 [CBK090964]	90.3%	
Cc1ccc(S(=O)(=O)Nc2ccc(Nc3cc(-c4cc(C(F)(F)F)cc(C(F)(F)F)c4)ncn3)cc2)cc1 [CBK090968]	99.6%	
Cc1ccc(S(=O)(=O)Nc2ccc(Nc3cc(-c4cc5ccccc5o4)ncn3)cc2)cc1 [CBK090976]	96.8%	
CCN(CCO)c1ccc(Nc2cc(-c3cc(C(F)(F)F)cc(C(F)(F)F)c3)ncn2)cc1 [CBK090994]	106%	
CCN(CCO)c1ccc(Nc2cc(-c3cc4ccccc4o3)ncn2)cc1 [CBK090999]	94.8%	
COc1ccccc1-c1cc(Nc2cccc(N(C)C)c2)ncn1 [CBK091011]	95.5%	
CN(C)c1cccc(Nc2cc(-c3cccc([N+](=O)[O-])c3)ncn2)c1 [CBK091012]	102%	
CN(C)c1cccc(Nc2cc(-c3ccco3)ncn2)c1 [CBK091014]	87.5%	
COc1ccc(N2CCN(c3cc(-c4cccc5ccccc45)ncn3)CC2)cc1OC [CBK091022]	43.4%	
COc1ccc(N2CCN(c3cc(-c4cccc(NC(C)=O)c4)ncn3)CC2)cc1OC [CBK091029]	96.4%	
